Active and inactive are the calls of the source. The calls are words filed in the database; no cut-off is given here.

In assay [1] the target is Intersectin-1 (Homo sapiens) (UniProt Q15811). The assay can be described thus: Inhibition of N-terminal 6x-His-tagged recombinant human ITSN1 DH and PH domain (1227 to 1571 residues) expressed in Escherichia coli BL21 (DE3) assessed as reduction in 50 nM […] GDP/GTP nucleotide exchange upon 2 uM N-terminal-GST-tagged Cdc42 (1 to 182 residues) at 10 uM by BODIPY-FL-GDP dissociation assay.
Sequence of Intersectin-1 (Homo sapiens) (Q15811 whole entry, the tested form may be a part): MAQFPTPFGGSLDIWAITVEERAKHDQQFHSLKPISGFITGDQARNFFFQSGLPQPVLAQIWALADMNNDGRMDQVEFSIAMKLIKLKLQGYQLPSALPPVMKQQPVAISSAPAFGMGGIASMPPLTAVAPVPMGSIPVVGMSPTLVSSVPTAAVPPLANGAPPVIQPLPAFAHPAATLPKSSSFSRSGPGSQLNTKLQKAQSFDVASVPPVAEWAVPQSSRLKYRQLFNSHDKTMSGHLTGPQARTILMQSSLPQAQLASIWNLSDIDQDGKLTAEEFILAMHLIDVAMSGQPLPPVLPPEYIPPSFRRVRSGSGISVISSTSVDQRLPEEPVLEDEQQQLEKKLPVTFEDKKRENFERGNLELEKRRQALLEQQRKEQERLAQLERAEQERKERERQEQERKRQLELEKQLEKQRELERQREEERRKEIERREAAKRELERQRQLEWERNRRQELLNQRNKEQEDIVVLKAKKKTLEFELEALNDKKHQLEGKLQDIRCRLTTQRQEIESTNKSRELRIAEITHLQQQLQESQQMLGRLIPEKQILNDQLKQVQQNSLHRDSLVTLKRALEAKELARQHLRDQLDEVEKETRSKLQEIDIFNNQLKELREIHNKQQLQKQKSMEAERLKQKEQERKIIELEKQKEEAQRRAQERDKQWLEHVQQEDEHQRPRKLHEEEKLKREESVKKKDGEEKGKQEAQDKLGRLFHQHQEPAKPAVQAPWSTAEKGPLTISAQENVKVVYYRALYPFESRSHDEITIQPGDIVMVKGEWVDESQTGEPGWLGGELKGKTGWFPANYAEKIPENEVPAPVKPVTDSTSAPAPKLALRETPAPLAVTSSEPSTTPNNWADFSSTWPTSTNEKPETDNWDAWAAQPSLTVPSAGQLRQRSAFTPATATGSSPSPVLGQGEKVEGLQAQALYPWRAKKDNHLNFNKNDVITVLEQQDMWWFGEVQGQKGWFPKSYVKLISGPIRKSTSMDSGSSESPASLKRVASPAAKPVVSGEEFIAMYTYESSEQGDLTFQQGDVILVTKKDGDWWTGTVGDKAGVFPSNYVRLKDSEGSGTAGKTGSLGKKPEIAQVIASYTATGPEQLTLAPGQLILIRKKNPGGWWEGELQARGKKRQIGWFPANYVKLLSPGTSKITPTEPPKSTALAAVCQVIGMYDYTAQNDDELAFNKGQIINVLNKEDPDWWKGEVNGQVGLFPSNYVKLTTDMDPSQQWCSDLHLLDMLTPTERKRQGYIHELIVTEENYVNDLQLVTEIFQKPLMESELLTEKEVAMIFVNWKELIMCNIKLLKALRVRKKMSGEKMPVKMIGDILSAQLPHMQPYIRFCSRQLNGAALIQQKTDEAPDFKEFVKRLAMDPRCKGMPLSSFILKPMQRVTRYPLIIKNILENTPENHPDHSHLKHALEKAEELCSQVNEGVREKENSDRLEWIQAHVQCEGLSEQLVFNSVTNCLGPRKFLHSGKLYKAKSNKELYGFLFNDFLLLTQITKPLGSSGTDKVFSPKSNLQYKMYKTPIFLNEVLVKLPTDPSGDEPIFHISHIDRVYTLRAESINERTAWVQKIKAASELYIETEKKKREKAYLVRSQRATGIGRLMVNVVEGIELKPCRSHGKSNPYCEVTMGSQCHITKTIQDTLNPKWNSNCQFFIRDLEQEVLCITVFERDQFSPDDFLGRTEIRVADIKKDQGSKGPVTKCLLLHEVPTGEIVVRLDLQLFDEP

The target of assay [2] is T1, Son of sevenless homolog 1 (Mus musculus) (UniProt Q62245).
T1 sequence (whole entry): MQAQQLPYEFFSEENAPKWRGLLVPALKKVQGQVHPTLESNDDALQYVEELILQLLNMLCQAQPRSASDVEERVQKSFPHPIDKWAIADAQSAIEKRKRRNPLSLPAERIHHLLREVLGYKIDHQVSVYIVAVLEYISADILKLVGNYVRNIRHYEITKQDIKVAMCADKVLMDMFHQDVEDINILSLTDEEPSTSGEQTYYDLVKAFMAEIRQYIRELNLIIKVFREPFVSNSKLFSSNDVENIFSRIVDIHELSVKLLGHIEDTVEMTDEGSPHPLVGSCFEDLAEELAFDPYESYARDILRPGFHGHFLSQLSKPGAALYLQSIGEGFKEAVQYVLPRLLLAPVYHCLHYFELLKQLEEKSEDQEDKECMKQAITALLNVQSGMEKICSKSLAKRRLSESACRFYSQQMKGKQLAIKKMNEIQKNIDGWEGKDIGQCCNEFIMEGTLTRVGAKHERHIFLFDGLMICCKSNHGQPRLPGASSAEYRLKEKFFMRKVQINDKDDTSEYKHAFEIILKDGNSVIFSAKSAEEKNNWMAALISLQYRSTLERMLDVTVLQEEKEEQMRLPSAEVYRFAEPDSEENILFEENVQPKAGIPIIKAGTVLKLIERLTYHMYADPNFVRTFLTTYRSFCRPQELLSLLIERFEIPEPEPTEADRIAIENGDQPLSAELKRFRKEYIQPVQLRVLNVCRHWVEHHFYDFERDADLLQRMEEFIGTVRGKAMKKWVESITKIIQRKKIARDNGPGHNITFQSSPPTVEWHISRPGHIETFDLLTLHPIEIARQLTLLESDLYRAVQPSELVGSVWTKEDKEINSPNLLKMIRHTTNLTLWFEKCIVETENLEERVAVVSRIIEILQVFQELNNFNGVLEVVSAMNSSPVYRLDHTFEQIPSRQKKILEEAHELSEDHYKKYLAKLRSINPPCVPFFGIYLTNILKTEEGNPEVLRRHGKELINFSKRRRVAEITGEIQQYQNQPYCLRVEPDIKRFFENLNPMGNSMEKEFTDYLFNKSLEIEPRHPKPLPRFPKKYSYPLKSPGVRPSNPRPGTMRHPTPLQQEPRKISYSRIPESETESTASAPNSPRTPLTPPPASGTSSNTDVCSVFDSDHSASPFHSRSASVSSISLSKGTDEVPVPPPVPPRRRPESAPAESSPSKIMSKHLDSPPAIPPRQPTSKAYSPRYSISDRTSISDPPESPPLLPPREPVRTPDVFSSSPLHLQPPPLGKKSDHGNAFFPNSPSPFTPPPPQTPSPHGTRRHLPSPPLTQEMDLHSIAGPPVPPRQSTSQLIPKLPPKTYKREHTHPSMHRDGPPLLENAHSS
As to the kind of experiment: Inhibition of SOS1 in overnight serum-starved mouse NIH/3T3 cells assessed as reduction in Akt phosphorylation at 20 to 40 uM pre-incubated for 16 hrs before EGF stimulation for 5 mins by Western blot analysis.

The target of assay [3] is T2, Son of sevenless homolog 1 (Homo sapiens) (UniProt Q07889).
T2 sequence (whole entry): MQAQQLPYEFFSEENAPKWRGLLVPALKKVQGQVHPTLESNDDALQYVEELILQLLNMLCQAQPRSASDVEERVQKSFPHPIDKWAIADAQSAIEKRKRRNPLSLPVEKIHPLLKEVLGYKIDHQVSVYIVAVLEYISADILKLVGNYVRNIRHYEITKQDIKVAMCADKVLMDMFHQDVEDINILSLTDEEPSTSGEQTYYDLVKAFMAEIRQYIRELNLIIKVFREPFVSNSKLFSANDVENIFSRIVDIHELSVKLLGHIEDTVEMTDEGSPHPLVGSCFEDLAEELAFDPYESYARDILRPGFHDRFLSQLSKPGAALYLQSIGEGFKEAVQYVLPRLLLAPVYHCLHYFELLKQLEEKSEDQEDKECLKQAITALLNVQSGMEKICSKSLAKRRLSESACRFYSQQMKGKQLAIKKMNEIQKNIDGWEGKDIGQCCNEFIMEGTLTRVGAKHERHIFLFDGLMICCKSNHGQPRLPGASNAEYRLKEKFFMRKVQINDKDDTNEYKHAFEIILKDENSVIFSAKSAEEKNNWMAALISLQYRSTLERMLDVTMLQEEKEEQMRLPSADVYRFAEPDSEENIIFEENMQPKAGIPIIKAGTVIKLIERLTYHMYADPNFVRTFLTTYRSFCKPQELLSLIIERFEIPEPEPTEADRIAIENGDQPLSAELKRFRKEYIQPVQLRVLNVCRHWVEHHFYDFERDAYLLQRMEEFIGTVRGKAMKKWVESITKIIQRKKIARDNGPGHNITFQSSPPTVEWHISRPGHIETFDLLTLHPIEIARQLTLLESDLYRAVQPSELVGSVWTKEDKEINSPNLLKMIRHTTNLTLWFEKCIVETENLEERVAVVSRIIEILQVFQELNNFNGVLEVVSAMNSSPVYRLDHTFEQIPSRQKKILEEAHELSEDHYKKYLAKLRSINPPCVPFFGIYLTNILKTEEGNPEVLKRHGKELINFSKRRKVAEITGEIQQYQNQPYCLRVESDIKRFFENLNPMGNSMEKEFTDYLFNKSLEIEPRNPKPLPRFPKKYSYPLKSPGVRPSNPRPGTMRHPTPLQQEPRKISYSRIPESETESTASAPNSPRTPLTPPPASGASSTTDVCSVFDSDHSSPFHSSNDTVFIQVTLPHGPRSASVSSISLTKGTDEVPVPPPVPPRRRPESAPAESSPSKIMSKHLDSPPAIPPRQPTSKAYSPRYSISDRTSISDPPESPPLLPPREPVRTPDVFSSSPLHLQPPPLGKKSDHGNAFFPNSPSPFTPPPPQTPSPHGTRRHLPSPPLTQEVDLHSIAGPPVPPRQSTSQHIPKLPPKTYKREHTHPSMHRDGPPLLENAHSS
The assay can be described thus: Inhibition of SOS1 in overnight serum-starved human MIAPaCa2 cells assessed as effect on Ras signaling by measuring Pan RAS expression in presence of GTP and KRAS at 20 to 60 uM by Western blotting analysis. (In western blotting, separated proteins are transferred to a membrane and probed.)

Assay [4] addresses T1, Son of sevenless homolog 1 (Mus musculus). The assay can be described thus: Inhibition of SOS1 in overnight serum-starved mouse MEF assessed as reduction in ERK1/2 phosphorylation at 10 to 40 uM pre-incubated for 2 hrs before EGF stimulation for 5 mins by Western blot analysis. The format is cell-based.

Turning to `O=C(O)c1ccccc1-c1c2ccc3cc(O)ccc3c2oc2c1ccc1cc(=O)ccc12`, the inhibition result in assay [1] is “inactive”. The inhibition entry in assay [2] is “Active”. Consider `O=[N+]([O-])c1ccccc1/C=C/C=C1c2ccccc2-c2ccccc21`, for which the inhibition entry in assay [3] is “Active”. For the compound `O=C1Oc2ccccc2C(=O)/C1=C/N1C(=O)/C(=C/c2ccc([N+](=O)[O-])cc2)SC1=S`, the inhibition entry in assay [4] is “Active”.
